Data as given in publication PMC12516390 (ACS Medicinal Chemistry Letters, 2025).
≈ marks a conversion by molar mass, not a printed value. Where two headings read alike, the source gives them in different places.

What was measured:
recombinant M^Pro = recombinant M^Pro (Severe acute respiratory syndrome coronavirus 2, UniProt P0DTD1); assay: SARS-CoV-2 Mpro screening and IC50 determination (QS1 fluorogenic substrate, Drag assay); type: biochemical
[1] = biological target: Human Recombinant Cathepsin S (Homo sapiens, UniProt P25774); assay: Cathepsin selectivity screening, Cat S (Z-Val-Val-Arg-AMC); type: biochemical; details: Z-Val-Val-Arg-AMC substrate
Human Recombinant Cathepsin S, sequence (P25774 115-331): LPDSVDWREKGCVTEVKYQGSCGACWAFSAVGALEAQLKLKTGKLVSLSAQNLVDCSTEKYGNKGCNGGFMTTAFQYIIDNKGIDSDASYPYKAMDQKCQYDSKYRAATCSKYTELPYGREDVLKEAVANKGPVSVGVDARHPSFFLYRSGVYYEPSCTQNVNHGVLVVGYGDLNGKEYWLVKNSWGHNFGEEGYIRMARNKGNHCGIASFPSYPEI

[2] = biological target: T1, Human Recombinant Cathepsin K (Homo sapiens, UniProt P43235); assay: Cathepsin selectivity screening, Cat K (Z-Phe-Arg-AMC); type: biochemical; details: Z-Phe-Arg-AMC substrate
T1 sequence (P43235 115-329): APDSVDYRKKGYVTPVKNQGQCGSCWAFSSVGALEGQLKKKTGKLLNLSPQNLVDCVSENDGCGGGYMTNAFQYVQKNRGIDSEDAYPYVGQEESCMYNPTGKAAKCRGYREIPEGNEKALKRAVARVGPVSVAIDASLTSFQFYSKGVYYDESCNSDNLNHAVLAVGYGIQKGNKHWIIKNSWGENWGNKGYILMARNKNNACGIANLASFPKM

[3] = biological target: Human Recombinant Cathepsin B (Homo sapiens, UniProt P07858); assay: Cathepsin selectivity screening, Cat B (Z-Phe-Arg-AMC); type: biochemical; details: for IC50: Z-Phe-Arg-AMC substrate
[4] = biological target: Human Recombinant Cathepsin L (Homo sapiens, UniProt P07711); assay: Cathepsin selectivity screening, Cat L (Z-Phe-Arg-AMC); type: biochemical; details: Z-Phe-Arg-AMC substrate
Human Recombinant Cathepsin L, sequence (P07711 114-333): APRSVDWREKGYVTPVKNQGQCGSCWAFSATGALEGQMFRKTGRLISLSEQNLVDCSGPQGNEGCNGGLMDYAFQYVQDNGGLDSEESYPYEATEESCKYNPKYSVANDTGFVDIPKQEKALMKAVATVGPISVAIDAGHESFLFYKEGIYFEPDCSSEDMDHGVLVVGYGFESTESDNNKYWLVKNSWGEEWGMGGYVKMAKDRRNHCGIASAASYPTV

in vitro [5] = details: African monkey
physchem [6] = details: pH 7.4, aqueous buffer, kinetic from dmso stock
physchem [7] = details: pH 7.4
in vitro [8] = details: mouse, microsomes, pH 7.4
in vitro [9] = details: human, microsomes, pH 7.4
[10] = IC50 (μM) M^Pro, recombinant M^Pro, 20 μM QS1 substrate, Table 5
[11] = M^Pro IC50 (μM), recombinant M^Pro, Table 6
[12] = Table 5, read-out: IC50 (μM) CatS
[13] = Table 5, read-out: IC50 (μM) CatK
[14] = Table 5, read-out: IC50 (μM) CatB
[15] = Table 5, read-out: IC50 (μM) CatL

COc1cccc(-c2ccc(C(=O)N3C[C@H]4[C@@H]([C@H]3C(=O)N[C@H](C#N)C[C@@H]3CCNC3=O)C4(C)C)c(Cl)c2)c1 [22f]
IC50 (recombinant M^Pro; [10]): 0.12 µM | IC50 (recombinant M^Pro; [11]): 0.12 µM | IC50 [1, 12]: 1.29 µM | IC50 [2, 13]: 4.52 µM | activity against cathepsin B (in words) [3]: completely abolished | IC50 [3, 14]: > 10 µM | IC50 [4, 15]: > 10 µM | CC50 (in vitro [5]): > 100 µM | solubility kinetic (physchem [6]): 82 µM (≈ 43.9 µg/mL) | logD (physchem [7]): 3.5 | microsomal CLint at 1 μM (in vitro [8]): 450 µL/min/mg | microsomal CLint at 1 μM (in vitro [9]): 209 µL/min/mg

COc1cccc(-c2ccc(C(=O)N[C@@H](CC(C)C)C(=O)N[C@H](C#N)C[C@@H]3CCNC3=O)c(Cl)c2)c1 [18n]
IC50 (recombinant M^Pro; M^Pro IC50 (nM), Table 4): 0.049 µM | IC50 (recombinant M^Pro; M^Pro IC50 (μM), recombinant M^Pro, 20 μM QS1 substrate, Table 3): 0.049 µM | IC50 (recombinant M^Pro; [11]): 0.049 µM | IC50 ([1]; Table 4, read-out: CatS IC50): 0.0155 µM | IC50 [1, 12]: 0.015 µM | IC50 ([2]; Table 4, read-out: CatK IC50): 0.329 µM | IC50 [2, 13]: 0.329 µM | IC50 ([3]; Table 4, read-out: CatB IC50): 0.115 µM | IC50 [3, 14]: 0.115 µM | IC50 ([4]; Table 4, read-out: CatL IC50): > 10 µM | CC50 (in vitro [5]): > 100 µM | solubility kinetic (physchem [6]): 34 µM (≈ 17.4 µg/mL) | logD (physchem [7]): 3.1 | microsomal CLint at 1 μM (in vitro [8]): 111 µL/min/mg | microsomal CLint at 1 μM (in vitro [9]): 40 µL/min/mg

COc1ccc(-c2ccc(C(=O)N3C[C@H]4[C@@H]([C@H]3C(=O)N[C@H](C#N)C[C@@H]3CCNC3=O)C4(C)C)c(Cl)c2)cc1 [22e]
IC50 (recombinant M^Pro; [10]): 0.087 µM | IC50 (recombinant M^Pro; [11]): 0.087 µM | IC50 [1, 12]: 1.03 µM | IC50 [2, 13]: 2.08 µM | activity against cathepsin B (in words) [3]: completely abolished | IC50 [3, 14]: > 10 µM | IC50 [4, 15]: > 10 µM | CC50 (in vitro [5]): > 100 µM | solubility kinetic (physchem [6]): 97 µM (≈ 51.9 µg/mL) | logD (physchem [7]): 3.4 | microsomal CLint at 1 μM (in vitro [8]): 450 µL/min/mg | microsomal CLint at 1 μM (in vitro [9]): 183 µL/min/mg

COc1cccc(-c2ccc(C(=O)N[C@@H](CC3CCCCC3)C(=O)N[C@H](C#N)C[C@@H]3CCNC3=O)c(Cl)c2)c1 [23d]
IC50 (recombinant M^Pro; [10]): 0.094 µM | IC50 [1, 12]: 0.011 µM | IC50 [2, 13]: 0.887 µM | IC50 [3, 14]: 0.137 µM | IC50 [4, 15]: > 10 µM | CC50 (in vitro [5]): > 100 µM
